Reference: patent US20160039842A1, “OXAZOLO[5,4-C]QUINOLIN-2-ONE COMPOUNDS AS BROMODOMAIN INHIBITORS” (EPIGENETIX, INC., priority 2013, published 2016)
pIC50: −log10 of the molar value.

Biological target: T1, BRD4(BD1) (Homo sapiens, UniProt O60885)
T1 construct: purchased BPS Bioscience
Assay: In Vitro Bromodomain Inhibition Assay (AlphaLISA, H4-tetraacetyl peptide)
Format: binding
Conditions: His-tagged BRD4(BD1) 200 nM, biotinylated H4-tetraacetyl peptide 200 nM, room temperature
Description: To measure activity of bromodomain inhibitors, a His-epitope tagged BRD4 BD149-170 was purchased from BPS Bioscience. BRD4 binding and inhibition was assessed by monitoring the engagement of biotinylated H4-tetraacetyl peptide (H4K5/8/12/16; AnaSpec #64989-025) with the target using the AlphaLISA technology (Perkin-Elmer). Specifically, in a 384 well OptiPlate, BRD4(BD1) (200 nM final) was pre-incubated with either DMSO (final 1.0% DMSO) or a compound dilution series in DMSO. All reagents were diluted in assay buffer containing 50 mM HEPES (pH 7.4), 100 mM NaCl, 0.1% (w/v) BSA, and 0.05% (w/v) CHAPS. After a 30 minute incubation at room temperature, H4 peptide was added (200 nM final) and the reaction was incubated an additional 30 minutes at room temperature. Alpha. streptavidin donor beads and AlphaLISA nickel chelate acceptor beads were then added to a final concentration of 10 ug/mL each. After one hour, equilibration plates were read on an Envision instrument and IC50s calculated using a four parameter non-linear curve fit.

pIC50, > 6.00:
COc1cc2c(cc1-c1c(C)noc1C)nc(CO)c1oc(=O)n([C@H](C)c3ccccc3)c12 [Example 35, 7-(3,5-Dimethylisoxazol-4-yl)-4-(hydroxymethyl)-8-methoxy-1-[(1R)-1-phenylethyl]oxazolo[5,4-c]quinolin-2-one]
COc1cc2c(cc1-c1c(C)noc1C)ncc1oc(=O)n(Cc3ccccc3C#N)c12 [Example 50, 2-[[7-(3,5-Dimethylisoxazol-4-yl)-8-methoxy-2-oxo-oxazolo[5,4-c]quinolin-1-yl]methyl]benzonitrile]
COc1cc2c(cc1-c1c(C)noc1C)ncc1oc(=O)n(Cc3ccc(OC(F)(F)F)cc3)c12 [Example 54, 7-(3,5-Dimethylisoxazol-4-yl)-8-methoxy-1-[[4-(trifluoromethoxy)phenyl]methyl]oxazolo[5,4-c]quinolin-2-one]
CCN(Cc1nc2cc(-c3c(C)noc3C)c(OC)cc2c2c1oc(=O)n2Cc1ccccc1)C(C)=O [Example 48, N-[[1-Benzyl-7-(3,5-dimethylisoxazol-4-yl)-8-methoxy-2-oxo-oxazolo[5,4-c]quinolin-4-yl]methyl]-N-ethyl-acetamide]
COc1cc2c(cc1-c1c(C)noc1C)ncc1oc(=O)n([C@H](C)c3ccccc3)c12 [Example 12A, 7-(3,5-Dimethylisoxazol-4-yl)-8-methoxy-1-[(1R)-1-phenylethyl]oxazolo[5,4-c]quinolin-2-one]
COc1cc2c(cc1-c1c(C)noc1C)ncc1oc(=O)n(Cc3ccccc3)c12 [Example 2, 1-Benzyl-7-(3,5-dimethylisoxazol-4-yl)-8-methoxy-oxazolo[5,4-c]quinolin-2-one]
COc1cc2c(cc1-c1c(C)noc1C)nc(C)c1oc(=O)n([C@H](C)c3ccccc3)c12 [Example 36, 7-(3,5-Dimethylisoxazol-4-yl)-8-methoxy-4-methyl-1-[(1R)-1-phenylethyl]oxazolo[5,4-c]quinolin-2-one]
COc1cc2c(cc1-c1c(C)noc1C)ncc1oc(=O)n(Cc3ccccc3S(C)(=O)=O)c12 [Example 49, 7-(3,5-Dimethylisoxazol-4-yl)-8-methoxy-1-[(2-methylsulfonylphenyl)methyl]oxazolo[5,4-c]quinolin-2-one]
COc1cc2c(cc1-c1c(C)noc1C)ncc1oc(=O)n([C@H](C)c3ccc(C#N)cc3)c12 [Example 43, 4-[(1R)-1-[7-(3,5-Dimethylisoxazol-4-yl)-8-methoxy-2-oxo-oxazolo[5,4-c]quinolin-1-yl]ethyl]benzonitrile]
COc1cc2c(cc1-c1c(C)noc1C)ncc1oc(=O)n([C@H](C)c3cccc(Cl)c3)c12 [Example 45, 1-[(1R)-1-(3-Chlorophenyl)ethyl]-7-(3,5-dimethylisoxazol-4-yl)-8-methoxy-oxazolo[5,4-c]quinolin-2-one]
COc1cc2c(cc1-c1c(C)noc1C)nc(CN1CCOCC1)c1oc(=O)n(Cc3ccccc3)c12 [Example 41, 1-Benzyl-7-(3,5-dimethylisoxazol-4-yl)-8-methoxy-4-(morpholinomethyl)oxazolo[5,4-c]quinolin-2-one]
CCOC(=O)c1nc2cc(-c3c(C)noc3C)c(OC)cc2c2c1oc(=O)n2[C@H](C)c1ccccc1 [Example 34, Ethyl 7-(3,5-Dimethylisoxazol-4-yl)-8-methoxy-2-oxo-1-[(1R)-1-phenylethyl]oxazolo[5,4-c]quinoline-4-carboxylate]
CC[C@H](c1ccccc1)n1c(=O)oc2cnc3cc(-c4c(C)noc4C)c(OC)cc3c21 [Example 39, 7-(3,5-Dimethylisoxazol-4-yl)-8-methoxy-1-[(1R)-1-phenylpropyl]oxazolo[5,4-c]quinolin-2-one]
COc1cc2c(cc1-c1c(C)noc1C)ncc1oc(=O)n([C@H](C)c3ccc(Cl)cc3)c12 [Example 40, 1-[(1R)-1-(4-Chlorophenyl)ethyl]-7-(3,5-dimethylisoxazol-4-yl)-8-methoxy-oxazolo[5,4-c]quinolin-2-one]
COc1cc2c(cc1-c1c(C)noc1C)ncc1oc(=O)n(Cc3c(C)cccc3F)c12 [Example 37, 7-(3,5-Dimethylisoxazol-4-yl)-1-[(2-fluoro-6-methyl-phenyl)methyl]-8-methoxy-oxazolo[5,4-c]quinolin-2-one]
COCc1nc2cc(-c3c(C)noc3C)c(OC)cc2c2c1oc(=O)n2[C@H](C)c1ccccc1 [Example 38, 7-(3,5-Dimethylisoxazol-4-yl)-8-methoxy-4-(methoxymethyl)-1-[(1R)-1-phenylethyl]oxazolo[5,4-c]quinolin-2-one]
COc1cc2c(cc1-c1c(C)noc1C)ncc1oc(=O)n([C@H](C)c3ccccn3)c12 [Example 3, 7-(3,5-Dimethylisoxazol-4-yl)-8-methoxy-1-[(1R)-1-(2-pyridyl)ethyl]oxazolo[5,4-c]quinolin-2-one]
COc1cc2c(cc1-c1c(C)noc1C)nc(CO)c1oc(=O)n(Cc3ccccc3)c12 [Example 33, 1-Benzyl-7-(3,5-dimethylisoxazol-4-yl)-4-(hydroxymethyl)-8-methoxy-oxazolo[5,4-c]quinolin-2-one]
COc1cc2c(cc1-c1c(C)noc1C)nc(CN(C)C)c1oc(=O)n([C@H](C)c3ccccc3)c12 [Example 42, 4-(Dimethylaminomethyl)-7-(3,5-dimethylisoxazol-4-yl)-8-methoxy-1-[(1R)-1-phenylethyl]oxazolo[5,4-c]quinolin-2-one]
COc1cc2c(cc1-c1c(C)noc1C)ncc1oc(=O)n(Cc3ccccc3Cl)c12 [Example 18, 1-[(2-Chlorophenyl)methyl]-7-(3,5-dimethylisoxazol-4-yl)-8-methoxy-oxazolo[5,4-c]quinolin-2-one]
COc1cc2c(cc1-c1c(C)noc1C)ncc1oc(=O)n(Cc3ccc(C)cc3)c12 [Example 46, 7-(3,5-Dimethylisoxazol-4-yl)-8-methoxy-1-(p-tolylmethyl)oxazolo[5,4-c]quinolin-2-one]
COc1cc2c(cc1-c1c(C)noc1C)ncc1oc(=O)n([C@H](C)c3cccc(C#N)c3)c12 [Example 44, 3-[(1R)-1-[7-(3,5-Dimethylisoxazol-4-yl)-8-methoxy-2-oxo-oxazolo[5,4-c]quinolin-1-yl]ethyl]benzonitrile]
CCNCc1nc2cc(-c3c(C)noc3C)c(OC)cc2c2c1oc(=O)n2Cc1ccccc1 [Example 52, 1-Benzyl-7-(3,5-dimethylisoxazol-4-yl)-4-(ethylaminomethyl)-8-methoxy-oxazolo[5,4-c]quinolin-2-one]
COc1cc2c(cc1-c1c(C)noc1C)nc(C(=O)O)c1oc(=O)n([C@H](C)c3ccccc3)c12 [Example 51, 7-(3,5-Dimethylisoxazol-4-yl)-8-methoxy-2-oxo-1-[(1R)-1-phenylethyl]oxazolo[5,4-c]quinoline-4-carboxylic acid]
CCOC(=O)c1nc2cc(-c3c(C)noc3C)c(OC)cc2c2c1oc(=O)n2Cc1ccccc1 [Example 1, Ethyl 1-benzyl-7-(3,5-dimethylisoxazol-4-yl)-8-methoxy-2-oxo-oxazolo[5,4-c]quinoline-4-carboxylate]
COc1cc2c(cc1-c1c(C)noc1C)nc(CN(C)C)c1oc(=O)n(Cc3ccccc3)c12 [Example 47, 1-Benzyl-4-(dimethylaminomethyl)-7-(3,5-dimethylisoxazol-4-yl)-8-methoxy-oxazolo[5,4-c]quinolin-2-one]
